Experimental data as given in publication PMC5712521, “Dendrogenin A drives LXR to trigger lethal autophagy in cancers” (Nature Communications, 2017).

What was measured:
B16F10 cells = assay: DDA-induced cytotoxicity (cell death); type: cell-based
Protocol: (§1) Melanoma cells were seeded into 6-well plates at 60,000 cells per well and AML cells at 250,000 cells/ml. The cells were then treated with control solvent vehicle (1/1000 ethanol in water) or DDA. Where indicated, treated cells were incubated in the presence or absence of each inhibitor for time shown. Cell death was determined by the trypan blue exclusion assay. Cells were scraped and resuspended in trypan blue solution (0.25% (w/v) in PBS) and counted in a Malassez cell under light microscopy. Cell viability was then quantified by counting viable (trypan blue-negative) and dead cells (trypan blue-positive).
(§2) Supplementary Fig. 1. a DDA inhibited m elanom a colony form ation. Melanom a cells were […]
(§3) a 0.5% solution of crystal violet in water and analyzed by microscopy. Images are representative of 5 independent experiments. b Evaluation of DDA-induced cytotoxicity (cytotox) and clonogenicity (clono) inhibition in a subset of human (H) and mouse (M) m elanom a cell lines. T he BRaf status in m elanom a cells lines is shown. […]

SKMEL-28 cells [1] = assay: DDA-induced cytotoxicity (cell death); type: cell-based
Protocol: as §1, §2, §3

SKMEL-28 cells [2] = assay: RT-qPCR of LXR-responsive genes; type: cell-based, human; conditions: 8 h, 2.5 µM DDA, 10 µM 22(R)HC, 1 µM GW, 100 nM TO, vs vehicle
Protocol: Total RNA was extracted from tumor cells or MEFs using an RNA Extraction kit (Qiagen) or Trizol (Invitrogen), respectively, and was quantified with NanoDrop. Complementary DNA (cDNA) synthesis was performed with 1 μg RNA iScript Reverse Transcriptase (Bio-Rad). 25 ng cDNA was amplified using SyBR Supermix (Bio-Rad). RNA expression of the different genes of interest (Supplementary Tables 1, 2) were determined using the ΔΔCT method, where the difference in the threshold cycle (ΔCT) values of the target gene and the housekeeping gene for each sample was normalized to the ΔCT value of the untreated sample.
Supplementary Fig. 4. a R egulat ion of LXR-responsive genes b y D DA and other k nown LXR
ligands in B16F10 and SKMEL- 28 cells transfected with s iRN A targeting LXRβ ( siLXRβ) or
with contro l siRN A scram ble (siSC). Cells were treated for 8 h with either solvent vehicle, 2.5
µM DD A, 10 µM 22(R) hydrox ycholesterol (22(R)HC), 1 µM GW 3965 (GW ) or 100 nM
T O901317 (T O). […]

SKMEL-28 cells [3] = assay: Immunoblot densitometry (LC3-II); type: cell-based, human; conditions: 2.5 µM DDA; for LC3-II protein, densitometry relative to control: SKMEL-28, 24 h, 10 µM 22(R)HC, 100 nM TO; for LC3-II protein, densitometry relative to untreated / LC3-II protein, densitometry: 24 h
Protocol: Immunoblotting was carried out as described previously. Proteins were separated on SDS-PAGE gels, electro-transferred onto polyvinylidene difluoride membranes and incubated overnight at 4 °C with the following antibodies: anti-Atg3, anti-Atg5 (D1G9), anti-Atg7 (D12B11), anti-Beclin (D40C5), anti-caspase-3 (Cell Signaling), anti-Bcl-2 (Millipore), anti-Bax (Millipore), anti-LC3 (Sigma-Aldrich), anti-LXRα (SantaCruz), anti-LXRβ (SantaCruz), anti-Nur77 (Active motif), anti-NOR1 (R&D systems), anti-PARP (Cell Signaling), anti-Vps34 (Cell Signaling), or anti-Actin (Millipore). For visualization, an ECL plus kit (Amersham Biosciences) was used, and chemiluminescence was measured by autoradiography (Supplementary Fig. 9). Specific bands were quantified with ImageQuant software.

SKMEL-28 cells [4] = assay: Sterol analysis by GC/MS; type: cell-based, human
Protocol: Sterols in cell homogenates were extracted with a solvent mixture containing chloroform/methanol 2/1 (v/v) spiked with epicoprostanol as the internal standard. Lipids were partitioned in chloroform after the addition of saline and saponified by methanolic potassium hydroxide (0.5 N, 60 °C, 15 min). The fatty acids released were methylated with BF3-methanol (12%, 60 °C, 15 min) to not interfere with the chromatography of sterols. The sterols were re-extracted in hexane and silylated, as described previously. The trimethylsilylether derivatives of the sterols were separated by gas chromatography (GC) (Hewlett–Packard 6890 series) in a medium polarity capillary column RTX-65, (65% diphenyl 35% dimethyl polysiloxane, length 30 m, diameter 0.32 mm, film thickness 0.25 μm (Restesk, Evry, France)). The mass spectrometer (Agilent 5975 inert XL) in series with the GC was set up for the detection of positive ions. Ions were produced in the electron impact mode at 70 eV. Sterols were identified by the fragmentogram in the scanning mode and quantified by selective monitoring of the specific ions after normalization with the internal standard epicoprostanol and calibration with weighed standards. […]
Quantification of sterols ac cum ulation in SKMEL- 2 8 c ells either expressing LXRβ (shCT L) or with LXRβ (sh3 or sh4LXR β) k nock ed down after 24 h treatm ent with 2.5 µ M DD A or solvent vehicle. Anal yses were perform ed by GC/MS. f Quantification of sterols accumulated in m elanom a cells after 24 h treatm ent with 10 µM 22(R) HC, 1 µ M GW , 100 nM T O or solvent […]
vehicle. […]

[5] = SKMEL-28 Sh3LXRβ, 2.5 µM DDA, 24 h
[6] = SKMEL-28 Sh4LXRβ, 2.5 µM DDA, 24 h
[7] = SKMEL-28 shCTRL, 2.5 µM DDA, 24 h
[8] = SKMEL-28, 24 h, 10 µM 22(R)HC, 1 µM GW, 100 nM TO, GC/MS

## CC(C)CCC[C@@H](C)[C@H]1CC[C@H]2[C@@H]3C[C@@H](NCCc4cnc[nH]4)[C@@]4(O)C[C@@H](O)CC[C@]4(C)[C@H]3CC[C@]12C [DDA, Dendrogenin A]
B16F10 cells; Mus musculus, B16-F10, 72 h, read-out: Cytotox EC50
  EC50: 700 ± 100 nM
SKMEL-28 cells [1]; Homo sapiens, SK-MEL-28, SKMEL-28 (H), BRaf V600E, 72 h, read-out: Cytotox EC50
  EC50: 2100 ± 200 nM
SKMEL-28 cells [2]; SKMEL-28, siCT
  ABCA1 mRNA: 0.4±0.1 fold
  ABCG1 mRNA: 1.0±0.1 fold
  ABCG5 mRNA: 3.9±0.4 fold
  ABCG8 mRNA: 0.2±0.1 fold
  LC3A mRNA: 1.7±0.2 fold
  LC3B mRNA: 1.6±0.1 fold
  LDLR mRNA: 3.2±0.3 fold
  NOR1 mRNA: 4.8±0.2 fold
  Nur77 mRNA: 8.2±0.2 fold
  SCD1 mRNA: 2.2±0.2 fold
  SREBP1 mRNA: 0.9±0.2 fold
  SULT2B1b mRNA: 2.9±0.1 fold
SKMEL-28 cells [2]; SKMEL-28, siLXRβ
  ABCA1 mRNA: 0.9±0.1 fold
  ABCG1 mRNA: 0.8±0.2 fold
  ABCG5 mRNA: 1.1±0.2 fold
  ABCG8 mRNA: 0.7±0.2 fold
  LC3A mRNA: 0.8±0.2 fold
  LC3B mRNA: 0.9±0.3 fold
  LDLR mRNA: 1.8±0.2 fold
  NOR1 mRNA: 1.0±0.1 fold
  Nur77 mRNA: 1.2±0.2 fold
  SCD1 mRNA: 1.2±0.1 fold
  SREBP1 mRNA: 1.0±0.3 fold
  SULT2B1b mRNA: 1.1±0.2 fold
SKMEL-28 cells [3]
  LC3-II protein, densitometry relative to control: 2.5
SKMEL-28 cells [3]; SKMEL-28 sh3LXRβ
  LC3-II protein, densitometry relative to untreated: 2.1
SKMEL-28 cells [3]; SKMEL-28 sh4LXRβ
  LC3-II protein, densitometry relative to untreated: 2.6
SKMEL-28 cells [3]; SKMEL-28 shCTRL
  LC3-II protein, densitometry relative to untreated: 5.5
SKMEL-28 cells [3]; SKMEL-28 siATG7
  LC3-II protein, densitometry: 1.1
SKMEL-28 cells [3]; SKMEL-28 siBECN1
  LC3-II protein, densitometry: 1.3
SKMEL-28 cells [3]; SKMEL-28 siNOR1 + siNur77
  LC3-II protein, densitometry: 3.2
SKMEL-28 cells [3]; SKMEL-28 siNOR1
  LC3-II protein, densitometry: 2.2
SKMEL-28 cells [3]; SKMEL-28 siNur77
  LC3-II protein, densitometry: 1.8
SKMEL-28 cells [3]; SKMEL-28 siVPS34
  LC3-II protein, densitometry: 1.2
SKMEL-28 cells [4]; [5]
  Sterol amount/total sterol: 7-DHC: 0.03± 0.02
  Sterol amount/total sterol: 8-DHC: 1.52± 0.10
  Sterol amount/total sterol: desmosterol: 0.01± 0.009
  Sterol amount/total sterol: lathosterol: 0.71± 0.02
  Sterol amount/total sterol: zymostenol: 5.78± 0.82
SKMEL-28 cells [4]; [6]
  Sterol amount/total sterol: 7-DHC: 0.39± 0.09
  Sterol amount/total sterol: 8-DHC: 4.32± 0.66
  Sterol amount/total sterol: desmosterol: 0.02± 0.005
  Sterol amount/total sterol: zymostenol: 6.57± 0.92
SKMEL-28 cells [4]; [7]
  Sterol amount/total sterol: 7-DHC: 0.03± 0.006
  Sterol amount/total sterol: 8-DHC: 5.81± 0.89
  Sterol amount/total sterol: desmosterol: 0.01± 0.008
  Sterol amount/total sterol: lathosterol: 0.41± 0.03
  Sterol amount/total sterol: zymostenol: 2.60±0.07

## O=S(=O)(c1ccccc1)N(CC(F)(F)F)c1ccc(C(O)(C(F)(F)F)C(F)(F)F)cc1 [TO, TO901317]
B16F10 cells; B16F10, 5 µM 22(R)HC, 0.5 µM TO, 1 µM GW
  cell death: no impact on cell death
SKMEL-28 cells [1]; SKMEL-28, 5 µM 22(R)HC, 0.5 µM TO, 1 µM GW
  cell death: no impact on cell death
SKMEL-28 cells [2]; SKMEL-28, siCT
  ABCA1 mRNA: 4.2±1.2 fold
  ABCG1 mRNA: 2.8±0.5 fold
  ABCG5 mRNA: 3.1±0.5 fold
  ABCG8 mRNA: 1.5±0.1 fold
  LC3A mRNA: 0.8±0.1 fold
  LC3B mRNA: 0.9±0.2 fold
  LDLR mRNA: 1.0±0.2 fold
  NOR1 mRNA: 1.7±0.1 fold
  Nur77 mRNA: 1.1±0.2 fold
  SCD1 mRNA: 1.8±0.2 fold
  SREBP1 mRNA: 1.8±0.3 fold
  SULT2B1b mRNA: 1.8±0.2 fold
SKMEL-28 cells [2]; SKMEL-28, siLXRβ
  ABCA1 mRNA: 2.2±0.3 fold
  ABCG1 mRNA: 1.1±0.2 fold
  ABCG5 mRNA: 1.1±0.1 fold
  ABCG8 mRNA: 0.8±0.1 fold
  LC3A mRNA: 0.9±0.1 fold
  LC3B mRNA: 0.9±0.1 fold
  LDLR mRNA: 0.9±0.1 fold
  NOR1 mRNA: 1.0±0.2 fold
  Nur77 mRNA: 1.1±0.2 fold
  SCD1 mRNA: 1.2±0.2 fold
  SREBP1 mRNA: 1.3±0.2 fold
  SULT2B1b mRNA: 1.3±0.2 fold
SKMEL-28 cells [3]
  LC3-II protein, densitometry relative to control: 0.9
SKMEL-28 cells [4]; [8]
  Sterol amount/total sterol: 8-DHC: 0.04± 0.02
  Sterol amount/total sterol: zymostenol: 0.36± 0.08
